Measurements reported in patent US7091222B2, “Imidazole derivatives” (Hoffmann-La Roche Inc., priority 2003, dated 2006).

Target: T1, human mGlu 5a receptor (Homo sapiens, UniProt P41594)
T1 construct: expressed in transfected cells; host or cells: EBNA cells (transient transfection); membrane homogenates
Experiment: [3H]MPEP competition binding on membranes of EBNA cells transfected with human mGlu 5a receptor
Conditions: competition with [3H]MPEP (2 nM), 1 h at 4° C., membranes of transiently transfected EBNA cells; Ki=IC50/[1+L/Kd]
Description: For binding experiments, cDNA encoding human mGlu 5a receptor was transiently transfected into EBNA cells using a procedure described by Schlaeger and Christensen [Cytotechnology 15:1–13 (1998)]. Cell membrane homogenates were stored at −80° C. until the day of assay where upon they were thawed and resuspended and polytronised in 15 mM Tris-HCl, 120 mM NaCl, 100 mM KCl, 25 mM CaCl2, 25 mM MgCl2 binding buffer at pH 7.4 to a final assay concentration of 20 μg protein/well.
Saturation isotherms were determined by addition of twelve [^3H]MPEP concentrations (0.04–100 nM) to these membranes (in a total volume of 200 μl) for 1 h at 4° C. Competition experiments were performed with a fixed concentration of [^3H]MPEP (2 nM) and IC50 values of test compounds evaluated using 11 concentrations (0.3–10,000 nM). Incubations were performed for 1 h at 4° C.
At the end of the incubation, membranes were filtered onto unifilter (96-well white microplate with bonded GF/C filter preincubated 1 h in 0.1% PEI in wash buffer, Packard BioScience, Meriden, Conn.) with a Filtermate 96 harvester (Packard BioScience) and washed 3 times with cold 50 mM Tris-HCl, pH 7.4 buffer. Nonspecific binding was measured in the presence of 10 μM MPEP. The radioactivity on the filter was counted (3 min) on a Packard Top-count microplate scintillation counter with quenching correction after addition of 45 μl of microscint 40 (Canberra Packard S. A., Zürich, Switzerland) and shaking for 20 min.
The inhibition (antagonists) curves were fitted with a four parameter logistic equation giving IC50, and Hill coefficient using an iterative non linear curve fitting software (Xcel fit).
For binding experiments the Ki values of the compounds tested are given. the Ki value is defined by the following formula: Ki=IC50/[1+L /Kd] in which the IC50 values are those concentrations of the compounds tested which cause 50% inhibition of the competing radioligand ([^3H]MPEP). L is the concentraion of radioligand used in the binding experiment and the Kd value of the radioligand is empirically determined for each batch of membranes prepared.

T1 sequence (P41594 21-1180 isoform P41594-2 limits assumed): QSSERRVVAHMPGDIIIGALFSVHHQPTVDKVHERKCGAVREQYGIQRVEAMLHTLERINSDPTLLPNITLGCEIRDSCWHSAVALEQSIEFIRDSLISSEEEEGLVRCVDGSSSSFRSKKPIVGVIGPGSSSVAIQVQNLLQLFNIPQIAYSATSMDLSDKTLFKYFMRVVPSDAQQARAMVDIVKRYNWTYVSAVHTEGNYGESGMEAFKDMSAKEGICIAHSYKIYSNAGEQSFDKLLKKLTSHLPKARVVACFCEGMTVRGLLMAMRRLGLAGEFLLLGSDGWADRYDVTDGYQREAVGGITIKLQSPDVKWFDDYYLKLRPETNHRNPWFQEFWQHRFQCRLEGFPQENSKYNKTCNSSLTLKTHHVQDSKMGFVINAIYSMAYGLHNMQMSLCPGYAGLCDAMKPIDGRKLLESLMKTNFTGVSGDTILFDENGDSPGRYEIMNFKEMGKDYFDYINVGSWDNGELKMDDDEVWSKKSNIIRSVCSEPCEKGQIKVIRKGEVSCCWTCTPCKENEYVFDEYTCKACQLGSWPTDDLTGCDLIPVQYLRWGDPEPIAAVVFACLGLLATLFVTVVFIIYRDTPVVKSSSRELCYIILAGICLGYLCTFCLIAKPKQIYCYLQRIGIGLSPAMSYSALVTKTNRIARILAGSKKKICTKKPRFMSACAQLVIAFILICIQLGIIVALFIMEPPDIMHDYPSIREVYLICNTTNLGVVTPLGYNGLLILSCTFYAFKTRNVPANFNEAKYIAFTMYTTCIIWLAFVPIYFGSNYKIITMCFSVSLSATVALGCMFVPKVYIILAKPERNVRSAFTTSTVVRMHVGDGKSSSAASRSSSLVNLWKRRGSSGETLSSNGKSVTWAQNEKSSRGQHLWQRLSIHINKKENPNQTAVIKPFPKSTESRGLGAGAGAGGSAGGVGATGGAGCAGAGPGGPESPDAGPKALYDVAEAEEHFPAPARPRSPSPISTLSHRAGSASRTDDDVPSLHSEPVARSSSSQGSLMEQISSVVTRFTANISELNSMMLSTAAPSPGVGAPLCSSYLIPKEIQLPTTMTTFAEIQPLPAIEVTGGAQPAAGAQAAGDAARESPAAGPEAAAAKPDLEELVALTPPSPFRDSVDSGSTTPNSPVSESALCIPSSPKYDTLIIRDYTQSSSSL

Row | SMILES | Ki [nM]
1 | Cc1cc(C#Cc2cn(C(C)C)c(C)n2)ccn1 [Example 2, 4-(1-Isopropyl-2-methyl-1H-imidazol-4-ylethynyl)-2-methyl-pyridine] | 68
2 | Cc1cc(C#Cc2cn(CC3CC3)c(C)n2)ccn1 [Example 4, 4-(1-Cyclopropylmethyl-2-methyl-1H-imidazol-4-ylethynyl)-2-methyl-pyridine] | 38
3 | Cc1cc(C#Cc2cn(CC#N)c(C)n2)ccn1 [Example 6, [2-Methyl-4-(2-methyl-pyridin-4-ylethynyl)-imidazol-1-yl]-acetonitrile] | 33
4 | COCCn1cc(C#Cc2ccnc(C)c2)nc1C [Example 7, 4-[1-(2-Methoxy-ethyl)-2-methyl-1H-imidazol-4-ylethynyl]-2-methyl-pyridine] | 122
5 | Cc1nc(C#Cc2ccnc(Cl)c2)cn1CC(C)C [Example 8, 2-Chloro-4-(1-isobutyl-2-methyl-1H-imidazol-4-ylethynyl)-pyridine] | 191
6 | Cc1nc(C#Cc2ccnc(Cl)c2)cn1C [Example 12, 2-Chloro-4-(1,2-dimethyl-1H-imidazol-4-ylethynyl)-pyridine] | 49
7 | Cc1cc(C#Cc2cn(C)c(C3CC3)n2)ccn1 [Example 13, 4-(2-Cyclopropyl-1-methyl-1H-imidazol-4-ylethynyl)-2-methyl-pyridine] | 28
8 | Cc1cc(C#Cc2cn(CC(F)(F)F)c(C)n2)ccn1 [Example 21, 2-Methyl-4-[2-methyl-1-(2,2,2-trifluoro-ethyl)-1H-imidazol-4-ylethynyl]-pyridine] | 54
9 | Cc1nc(C#Cc2ccnc(Cl)c2)cn1CC(F)(F)F [Example 22, 2-Chloro-4-[2-methyl-1-(2,2,2-trifluoro-ethyl)-1H-imidazol-4-ylethynyl]-pyridine] | 95
